# Source: paper PMC2693498 (Retrovirology, 2009)
# Several values for one entry are separate records, joined by “and”; a condition that tells them apart may be missing. Identical values can stand only once. Like-named read-outs stand apart in the source and are kept apart here.
# Experiments:
# [1] = in vivo; cited from earlier work
# [2] = tested on: HIV-1 strain xxLAI; assay: microbe, parasite or virus in culture; assay type: cell-based; details: Human immunodeficiency virus 1, MT2
# Description: The infected cells were incubated for 5 days at 37°C in 5% CO2. Antiviral activity was measured by determining the HIV-1 cytopathic effect by using the vital dye XTT (2,3-bis(2-methoxy-4-nitro-5-sulphophenyl)-2H-tetrazolium-5-carboxanilide) based colorimetric assay [61].
# For the median-effect analysis, the compounds were combined at a 1:1 ratio based on their EC50. Six to eight concentrations of each single drug, two-drug combinations, and three-drug combinations were assayed in at least three independent experiments with quadruplicate wells for each experiment. The triple drug combination of TFV+FTC+EFV was studied by the median-effect analysis only. […] For the MacSynergy analysis, combinations of TFV+FTC, TFV+EFV, and FTC+EFV were tested in a checkerboard fashion in 96-well plates with the starting concentration for each compound fixed at three-fold to four-fold above the EC50 value. For the isobologram analysis, combinations of TFV+FTC, TFV+EFV, and FTC+EFV were tested in a checkerboard fashion with the starting concentration for each compound fixed at three-fold to four-fold above the EC50 value.
# The degrees of synergy and antagonism were determined using CalcuSyn software (version 2.0, Biosoft, Cambridge, UK) which is based on median-effect principle by Chou and Talalay [62]. […] The IC50 value is calculated from the y-intercept (-m * log IC50), where m is the slope of the curve. […]
# The MacSynergy II program (version 1.0, Ann Arbor, MI) calculates a theoretical additive value for each drug combination based on the values generated by the drugs alone using the Bliss Independence model [42]. […] A synergy volume is calculated by adding all of the positive values for each drug combination. […]
# In our cell culture study, the score of synergy/antagonism was calculated from a set of 5 replicate parallel measurements and more than 3 sets of such experiments were conducted to test the reproducibility of the results. […]
# Fractional inhibitory concentrations are calculated by dividing the EC50 of drug 1 with a fixed overlay of drug 2 by the EC50 of drug 1 alone (the x-coordinate).
# [3] = biological target: T1, HIV-1 RT (Human immunodeficiency virus type 1 group M subtype B, UniProt P04585); assay: HIV-1 RT enzymatic (combination) inhibition assay, steady state, activated calf thymus DNA; assay type: biochemical
# T1 construct: Wild-type HIV-1 RT p66/p51 heterodimers; 6-His (N); made in house
# [4] = human, in vivo; cited from earlier work
# [5] = biological target: T2, HIV-1 RT and ddNTP-terminated DNA primer/template (Human immunodeficiency virus type 1 group M subtype B, UniProt P04585); assay: DEC formation assay (gel shift); assay type: binding
# T2 construct: Wild-type HIV-1 RT p66/p51 heterodimers; 6-His (N); made in house
# Description: The dead-end complex (DEC) refers to a salt-stable complex formed by HIV-1 RT/ddNMP-terminated DNA primer-template bound to the next dNTP (or ddNTP) that is resistant to being competed apart with excess template. When DEC forms, HIV-1 RT and the DNA primer-template are "trapped" in a state where the forward reaction (polymerization), backward reaction (terminal ddNMP-excision), or enzyme-DNA dissociation cannot occur. We investigated the DEC formation using TFV-terminated DNA/RT/FTC-TP and FTC-MP-terminated DNA/RT/TFV-DP to test the hypothesis that the incoming NRTI might act as the next nucleotide to the chain-terminated primer and form a DEC, thus stabilizing the pre-existing chain-termination. […] For these studies, formation of DEC was determined by three kinetic constants including the dissociation constant (Kd), the maximum percentage of DNA primer-template forming a tight binding RT-DNA complex (Bmax), and the ratio of Bmax/Kd which reflects the efficiency of DEC formation. Furthermore, two sets of DNA primer/templates ([…] and D26/D50) were used to address whether the observation was sequence-dependent.
# DNA primers D19, D25, and D26 were 5'-end labeled with T4 polynucleotide kinase (New England Biolabs, Ipswich, MA) and [γ-^32P]ATP as previously described. […] The annealed primer/templates were analyzed by non-denaturing polyacrylamide gel (4–20% TBE) electrophoresis to ensure that the proper annealing had taken place.
# The ability of HIV-1 RT to form a stable complex with NRTI-terminated primer/template in the presence of dNTP, ddNTP or NNRTI was assessed as previously described with modification. Two sets of primer/templates were tested using D19/D36A (D19/D36C) and D25/D50 (D26/D50). Labeled primer/template was chain-terminated by incubating a mixture containing 50 mM Tris-HCl (pH 7.8), 60 mM KCl, 5 mM MgCl2, 5 mM DTT, 300 μg/mL bovine serum albumin, 4.2 (v/v) % glycerol, 5 nM [5'-^32P]-labeled primer/template, 0.5 μM of ddATP or TFV-DP (for D19/D36A or D25/D50) or 0.5 μM of ddCTP or FTC-TP (for D19/D36C or D26/D50), and 200 nM HIV-1 RT for 5 min at 37°C and then placed on ice. […] Free dNTP, ddNTP, or EFV was added into the mixture and the mixture was incubated for 15 min at 25°C. At the end of the incubation, the mixture was placed on ice and mixed with 100 mM KCl and 1 A260 unit/mL (for D19/D36A and D19/D36C) or 5 A260 unit/mL (for D25/D50 and D26/D50) poly(rA).poly(dT)12–18. […] The gel was exposed to a storage phosphor screen and DEC formation was quantified using GE Storm 820 PhosphorImager and ImageQuant TL software (GE Healthcare, Piscataway, NJ).
# The DEC formation was analyzed by plotting the fraction of the primer/template detected as a function of dNTP, ddNTP, or EFV concentration. […] Data were fitted by nonlinear regression to simple ligand binding equation: y = (Bmax × [ligand])/(Kd + [ligand]) using SigmaPlot 9.0 (Systat Software, Inc., San Jose, CA), where the ligand is the free dNTP, ddNTP, or EFV concentration, and y corresponds to the % of primer/template in DEC complex. The kinetic constants Kd represents the apparent dissociation constant of a ligand and Bmax is the maximum % of DEC complex formation.
# [6] = biological target: T2, HIV-1 RT and ddNTP-terminated DNA primer/template; set-up: method as in PMID 9153415, PMID 17517852; details: TFV-terminated DNA+RT ref 51,55; read-out: Kd, reported values for DEC of TFV-terminated DNA+RT+dCTP; cited from earlier work
# [7] = [α-32P]-dATP incorporation as marker
# [8] = [α-32P]-dCTP incorporation as marker
# [9] = TFV-terminated DNA 26/50-mer + HIV-1 RT, example experiment of Fig. 5
# [10] = TFV-terminated DNA 26/50-mer + HIV-1 RT, example experiment of Fig. 5, read-out: Kd (curve fit of Fig. 5)
# [11] = ligand added to TFV-terminated DNA D20/D36 + HIV-1 RT
# [12] = ligand added to TFV-terminated DNA D20/D36 + HIV-1 RT, read-out: Kd
# [13] = ligand added to TFV-terminated DNA D26/D50 + HIV-1 RT
# [14] = ligand added to ddAMP-terminated DNA D20/D36 + HIV-1 RT
# [15] = ligand added to ddAMP-terminated DNA D20/D36 + HIV-1 RT, read-out: Kd
# [16] = ligand added to ddAMP-terminated DNA D26/D50 + HIV-1 RT
# [17] = ligand added to ddCMP-terminated DNA D20/D36 + HIV-1 RT
# [18] = ligand added to ddCMP-terminated DNA D27/D50 + HIV-1 RT
smiles,measurement,setting,value
"O=C1Nc2ccc(Cl)cc2[C@@](C#CC2CC2)(C(F)(F)F)O1 [EFV, efavirenz]",steady-state plasma EFV concentration,[1],5 µM
same,EC50,[2],0.0056 µM
"Nc1nc(=O)n([C@@H]2CS[C@H](CO)O2)cc1F [FTC, emtricitabine]",EC50,[2],1.3 µM
"Nc1nc(=O)n([C@@H]2CS[C@H](COP(=O)(O)OP(=O)(O)OP(=O)(O)O)O2)cc1F [FTC-TP, FTC triphosphate]",IC50,[3]; [7],5 ± 3.2 µM
same,IC50,[3]; [8],2.4 ± 0.8 µM
same,concentration in patients' peripheral blood mononuclear cells (PBMC),[4],5000 nM
same,Bmax (curve fit of Fig. 5),[5]; [9],50.4 ± 1.1%
same,Kd,[5]; [10],52.6 ± 3.4 µM
same,fold more efficient DEC formation than dCTP,"[5]; TFV-terminated DNA+RT, two sequence contexts: equal to dCTP in one, this fold in the other",3.9 fold and 4 fold
same,fold less efficient DEC formation than with dCTP,[5]; ddAMP-terminated DNA+RT,10 fold
same,Bmax,[5]; [11],17.7 ± 3.9%
same,Kd,[5]; [12],250 ± 11 µM
same,Bmax,[5]; [13],50.0 ± 5.0%
same,Bmax,[5]; [14],28.1 ± 4.7%
same,Kd,[5]; [15],171 ± 28 µM
same,Bmax,[5]; [16],60.2 ± 7.2%
"C[C@H](Cn1cnc2c(N)ncnc21)OCP(=O)(O)O [TFV, tenofovir]",EC50,[2],13 µM
"C[C@@H](Cn1cnc2c(N)ncnc21)OCP(=O)(O)OP(=O)(O)OP(=O)(O)O [TFV-DP, TFV diphosphate]",IC50,[3]; [7],0.53 ± 0.08 µM
same,IC50,[3]; [8],0.82 ± 0.23 µM
same,concentration in patients' peripheral blood mononuclear cells (PBMC),[4],500 nM
same,Bmax,[5]; [17],15.3 ± 2.7%
same,Bmax,[5]; [18],55 ± 2%
Nc1ncnc2c1ncn2[C@H]1C[C@H](O)[C@@H](COP(=O)(O)OP(=O)(O)OP(=O)(O)O)O1 [dATP],fold more efficient DEC formation than TFV-DP,[5]; ddCMP-terminated DNAs,24- to 65 fold
same,Bmax,"[5]; ligand added to FTC-MP-terminated DNA D27/D50 + HIV-1 RT, ND = No DEC formation detected at 2 mM",45 ± 14%
same,Kd,"[5]; ligand added to FTC-MP-terminated DNA D27/D50 + HIV-1 RT, ND = No DEC formation detected at 2 mM, read-out: Kd",862 ± 229 µM
same,Bmax,[5]; [17],38.0 ± 4.4%
same,Bmax,[5]; [18],60 ± 3%
Nc1ccn([C@H]2C[C@H](O)[C@@H](COP(=O)(O)OP(=O)(O)OP(=O)(O)O)O2)c(=O)n1 [dCTP],Kd,[6],1 to 5 µM
same,Bmax (curve fit of Fig. 5),[5]; [9],49.2 ± 2.7%
same,Kd,[5]; [10],185 ± 28 µM
same,Bmax,[5]; [11],18.5 ± 6.7%
same,Kd,[5]; [12],232 ± 12 µM
same,Bmax,[5]; [13],50.0 ± 5.5%
same,Bmax,[5]; [14],34.2 ± 4.6%
same,Kd,[5]; [15],21.5 ± 9.8 µM
same,Bmax,[5]; [16],55.8 ± 3.4%
